Molecules are shown by their SMILES.

This assay deals with T1, human ataxin-3 (Q36) (Homo sapiens, UniProt P54252, INS305QQQQQQQQQQQQQQQQQQQQQQQQQQ).
T1 construct: glutathione S-transferase (GST), PreScission Protease site (N, cleaved yes); made in house; host or cells: Escherichia coli BL21 codon plus RIL (plasmid pGEX6P-1)
Put plainly: Heat-induced amyloid fibre formation / aggregation screening assay. The conditions noted are these: 10 microM Congo red; ataxin-3 (Q36) about 0.1 mg/ml in 10 mM sodium phosphate, pH 7.0, incubated at growing temperatures. The class given is biochemical. As to the method:
The screening procedure encompasses a) mixing the protein of interest with the compound to be assayed for its ability to prevent aggregation b) gradually increasing the temperature c) detecting the appearance of amyloid fibres by turbidimetric measurements, and/or by visual inspection of the mixture, and/or by determining its protein content before and after spinning down the aggregated protein. In the control sample, no compound is added so heating results in amyloid fibre formation and ensuing protein precipitation and clouding of the solution. In contrast, a compound capable of preventing aggregation also prevents or reduces clouding, along with protein precipitation on centrifugation. Protein concentration is typically about 0.1 mg per ml. Human ataxin-3 (Q36) was dissolved in 10 mM sodium phosphate, pH 7.0 at a final concentration of about 0.1 mg/ml and incubated at growing temperatures. […] Congo red is a well-known antiamyloidogenic compound. On incubating human ataxin-3 (Q36) in the presence of 10 microM Congo red and otherwise under the conditions depicted in example 3, protein aggregation phenomena observed in the absence of the dye were prevented.

T1 sequence (P54252 with tags, fused parts or gaps with the stated changes): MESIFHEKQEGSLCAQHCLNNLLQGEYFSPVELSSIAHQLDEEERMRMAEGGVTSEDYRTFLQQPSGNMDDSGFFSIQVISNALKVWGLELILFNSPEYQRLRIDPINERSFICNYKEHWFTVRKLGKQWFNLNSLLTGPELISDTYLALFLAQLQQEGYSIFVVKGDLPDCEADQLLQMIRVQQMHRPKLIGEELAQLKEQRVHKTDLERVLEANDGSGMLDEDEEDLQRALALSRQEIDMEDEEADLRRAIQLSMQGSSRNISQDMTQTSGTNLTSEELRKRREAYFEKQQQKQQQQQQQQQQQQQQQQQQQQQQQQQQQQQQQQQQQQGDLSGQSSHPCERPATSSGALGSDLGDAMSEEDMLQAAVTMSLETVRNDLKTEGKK

Take `Nc1c(/N=N/c2ccc(-c3ccc(/N=N/c4cc(S(=O)(=O)O)c5ccccc5c4N)cc3)cc2)cc(S(=O)(=O)O)c2ccccc12` [Congo red]: the “protein aggregation (amyloid fibre formation) on heating” value is on record as “prevented”.

The values are drawn from patent publication US20050287600A1, “Method for screening for agents preventing aggregation of potentially amyloidogenic proteins” (priority 2002, published 2005).
